Experimental data taken from US10047151B2, “Methods for the treatment of cancer and inflammatory diseases using cereblon as a predictor” (Celgene Corporation, priority 2011, dated 2018).

Assays:
Format in all cases: cell-based
[1] = system: CRBN; test: CRBN mRNA and protein expression after drug treatment (RT-PCR, Western blot); conditions: H929 and U266B1 cells; pomalidomide 1 μM, lenalidomide 10 μM
[2] = system: U266B1 cells; test: Gene expression profile by microarray in U266B1 cells; conditions: negative control siRNA-transfected U266B1 cells; pomalidomide 1 μM, lenalidomide 10 μM; ±1.7 fold, P<0.05
Procedure: Gene expression profile using microarray technology identified 759 or 609 genes differentially modulated in negative control siRNA-transfected U266B1 cells treated with pomalidomide (1 μM) or lenalidomide (10 μM) compared to DMSO treated control (±1.7 fold; P<0.05 ANOVA p-value) (FIGS. 5A & 5B).

[3] = system: DLBCL cells; test: 3H-thymidine incorporation cell proliferation assay in DLBCL cell lines; conditions: 0.01-100 μM, 5 days
Procedure: Cell proliferation was assessed using the ^3H-thymidine incorporation assay. Briefly, logarithmically growing DLBCL cells were cultured in 96-well culture plates in complete media with the indicated concentration of lenalidomide or DMSO control. Following incubation at 37° C. for 5 days, 1 μCi ^3H-thymidine (GE Healthcare Biosciences, Piscataway, N.J.) was added to each well for the final 5 hours of incubation. Cells were then harvested onto UniFilter GF/C filter plates (PerkinElmer, Waltham, Mass.) using a cell harvester (Tomtec, Hamden, Conn.) and the plates were allowed to dry overnight. The ^3H-thymidine incorporation of each well was then measured using a TopCount NXT Microplate Scintillation and Luminescence Counter (Packard BioScience, Meriden, Conn.). The percent inhibition of cell proliferation was calculated and normalized to DMSO control.
In order to define the place of lenalidomide for DLBCL therapy in specific patient populations and to understand the molecular mechanisms of efficacy, a panel of DLBCL cell lines was collected in this study. The DLBCL subtypes of the cell lines were confirmed based on literature information (Lenz G, et al., Proc Natl Acad Sci USA 2008; 105: 13520-5) and molecular analysis, including intracellular NF-κB activity or IRF4 expression, as well as gene expression profiling of key signature genes of activated B cells.

[4] = system: NF-κB; test: NF-κB subunit DNA binding ELISA on nuclear extracts
Procedure: Logarithmically growing DLBCL cells were treated with test agents as indicated. Nuclear extracts were prepared using a Nuclear Extract Kit (Active Motif, Carlsbad, Calif.) and protein concentration was determined by the bicinchoninic acid assay (Thermo Scientific, Rockford, Ill.). Detection of NF-κB activity was performed using a sensitive oligo-based colorimetric enzyme-linked immunosorbent assay (ELISA) method, according to the instructions of the manufacturer (Active Motif). Briefly, nuclear extracts of DLBCL cells were hybridized to 96-well plates coated with wild-type DNA oligonucleotides containing a single copy of the NF-κB consensus binding sequence. Bound NF-κB protein was then detected with antibodies specific for p50, p65 (Rel A) or […] subunits. A secondary antibody conjugated to horseradish peroxidase was added and plates were then read by spectrophotometry at 450 nm with a reference wavelength of 655 nm. NF-κB activity was calculated based on OD450/655 nm.
The effect of lenalidomide on NF-κB activity in various DLBCL cells was examined by measuring the level of NF-κB subunit proteins binding to consensus sequences and the NF-κB-driven luciferase activity. […] In contrast, lenalidomide had no effect on NF-κB DNA binding in GCB-DLBCL lines nor in normal peripheral blood mononuclear cells.

Nc1cccc2c1CN(C1CCC(=O)NC1=O)C2=O (stereo not shown) [lenalidomide, 3-(4-amino-1-oxo-1,3-dihydro-isoindol-2-yl)-piperidine-2,6-dione]
mRNA and protein expression of CRBN [1]: affected neither mRNA nor protein expression of CRBN significantly
genes differentially modulated compared to DMSO treated control [2]: 609 genes
proliferation of cells ([3]; ABC-DLBCL cell lines, except for OCI-Ly3): significantly inhibited
proliferation of cells ([3]; PBML and GCB-DLBCL cells): minimal effects
NF-κB DNA binding ([4]; GCB-DLBCL lines and normal peripheral blood mononuclear cells): no effect
NF-κB inhibition ([4]; lenalidomide-insensitive ABC-DLBCL OCI-Ly3 line with CARD11 mutation): not by lenalidomide
DNA binding by Rel A/p65, p50 and c-rel/p70 NF-κB subunits ([4]; several ABC-DLBCL cell lines, concentration-dependent): partially inhibited
